Laboratory results: patent US20220016067A1, “NOVEL ANTI-INFLAMMATORY COMPOUND, PRODUCING METHOD AND USE THEREOF” (priority 2020, published 2022)

Key:
Assay type in all cases: cell-based
[1] = tested on: RAW264.7 cells; experiment: Cytotoxicity test (Alamar blue) in RAW264.7 cells; details: 25, 50, 100, 200, 400 and 800 μM, 24 hours
Method: RAW264.7 cells are cultured in RPMI medium containing 10% fetal bovine serum, 0.2% sodium bicarbonate and 1% penicillin/streptomycin, and in a 5% CO2, 37° C. incubator. The cells are subcultured when a confluency of 70-80% is reached. RAW264.7 cells are inoculated in a 96-well plate at a density of 4×10^4 cells/well per well. After the cells are adhered for overnight incubation, Pineapplin PL6 at different concentrations (25, 50, 100, 200, 400 and 800 μM) or pineapple extract (3, 6, 12 mg/ml) is added to each well. The blank control group is treated with culture medium without the Pineapplin PL6 or pineapple extract After 24 hours of incubation, Alamar blue is used to test cytotoxicity of the Pineapplin PL6. The medium is removed, washed twice with PBS, and diluted 10 times with Alamar Blue reagent in the medium without FBS. After reaction in dark for 6 hours, the change in absorbance at a wavelength of 570 nm is measured by using an ELISA reader.

[2] = tested on: nitric oxide production induced by LPS in RAW264.7 macrophages; experiment: LPS-induced NO production in RAW264.7 macrophages (Griess reagent); details: 200 μM and 400 μM, LPS 200 ng/ml, RAW264.7, 24 hours
Method: RAW264.7 cells are inoculated in a 96-well plate at a density of 4×10^5 cells/well. After the cells are adhered overnight, 200 ng/ml LPS is added, the blank control group has no LPS added, and incubated at 5% CO2 and 37° C. for 24 hours. On the second day, different concentrations (50, 100, 200 and 400 μM) of Pineapplin PL6 are added to the wells. The blank control group is treated with LPS-free medium, and the blank control group is treated with PL6-free LPS medium. The cells are then cultured under the condition of 5% CO2 and 37° C. After 24 hours of incubation, 150 μl of medium for each group is collected.
A solution of 1% p-aminobenzene sulfonic acid dissolved in 5% phosphoric acid is prepared, and then mixed with 0.1% N-(1-naphthyl)ethylenediamine dihydrochloride at a ratio of 1:1 to form the Griess reagent. Solutions of sodium nitrite at concentrations of 1.5625 μM to 100 μM are prepared for making a standard curve. 150 μl of the collected medium is mixed with 50 μl of the Griess reagent, and reacted in a dark environment for 30 minutes. The change in absorbance at a wavelength of 555 nm is measured using an ELISA reader.

[3] = tested on: iNOS; experiment: LPS-induced iNOS expression in RAW264.7 macrophage cells (Western blot); details: LPS 200 ng/ml, PL6 50-400 μM, 24 hours
Method: The effect of Pineapplin PL6 on the LPS-induced iNOS expression is tested in RAW264.7 macrophage cells. The iNOS/β-actin ratio is the relative expression level of iNOS and β-actin protein. The higher the expression level of iNOS, the more inflammation response occurred (as an inflammation index). RAW264.7 macrophage cells were pretreated with LPS (200 ng/ml) for 24 hours, then incubated with various concentrations (50, 100, 200 and 400 μM) of PL6 at 5% CO2 and 37° C. for 24 hours. The (−) control group is treated with LPS-free medium, and the (+) control group is treated with PL6-free LPS medium. The cell culture supernatant of each group is collected, then the protein concentration is calculated, and 30 μg of total protein is taken from each group for protein gel electrophoresis. […] The luminescence fluorescence digital analysis system (ImageQuant LAS 400 mini, GE Healthcare Life Sciences) is used for luminescence color development.
The data shown in FIG. 7 is the relative expression of iNOS protein to β-actin, which is calculated by a software, based on the values obtained from the luminescence color film using scanning optical density method and standardized to β-actin protein.

[4] = tested on: NFκB; experiment: LPS-induced NFκB expression (p-p65/p65) in RAW264.7 macrophage cells (Western blot); details: LPS 200 ng/ml, PL6 50-400 μM, 24 hours
Method: In this example, effect of Pineapplin PL6 on the LPS-induced NFκB expression is further tested in the RAW264.7 macrophage cell line. The value of p-p65/p65 is the relative expression level of NFκB protein. The higher the expression level of NFκB, the more inflammation response occurred (as an inflammation index). RAW264.7 macrophage cells were pretreated with LPS (200 ng/ml) for 24 hours, then incubated with various concentrations (50, 100, 200 and 400 μM) of PL6 for 24 hours at a condition of 5% CO2 and 37° C. The (−) control group is treated with LPS-free medium, and the (+) control group is treated with PL6-free LPS medium. The cell culture supernatant of each group is collected, then the protein concentration is calculated, and 30 μg of total protein is taken from each group for protein gel electrophoresis. […] After washing with PBST, the developing agent (Western Chemiluminescent HRP Substrate) is added, and the luminescence fluorescence digital analysis system (ImageQuant LAS 400 mini, GE Healthcare Life Sciences) is used for luminescence color development.
The data shown in FIG. 8 is the relative expression of NFκB protein p-p65/p65, which is calculated by a software, based on the values obtained from the luminescence color film using scanning optical density method and standardized to β-actin protein.

## 1,2,3-tricarboxylic acid-propyl-3-hydroxyphenol acrylate [Pineapplin PL6]
[1]
  cytotoxicity to RAW264.7 cells: no obvious cytotoxicity
[2]
  production of nitric oxide induced by LPS: significantly reduces
[3]
  iNOS protein expression (iNOS/β-actin): inhibiting iNOS protein expression
[4]
  NFκB protein expression (p-p65/p65): inhibiting NFκB protein expression
